Laboratory results as given in ChEMBL document CHEMBL3769371, “1-[(2E)-3-Phenylprop-2-enoyl]-1H-benzimidazoles as anticancer agents: synthesis, crystal structure analysis and binding studies of the most potent anticancer molecule with serum albumin” (Medchemcomm, 2015).

Experiments:
[1] = Cytotoxicity against human OVCAR5 cells assessed as cell growth at 10^-5 M after 48 hrs by SRB assay; format: functional; conditions: OVCAR-5, 48 h, read-out: Activity
[2] = Cytotoxicity against human BT549 cells assessed as cell growth at 10^-5 M after 48 hrs by SRB assay; format: functional; conditions: BT-549, 48 h, read-out: Activity
[3] = Cytotoxicity against human OVCAR8 cells after 48 hrs by SRB assay; format: functional; conditions: OVCAR-8, 48 h
[4] = target: T1, Albumin (Homo sapiens, UniProt P02768); test: Binding affinity to human serum albumin assessed Stern-Volmer quenching constant at 0.25 to 2 uM at 298 K by fluorescence microscopic analysis; format: ADME; conditions: isolated protein
T1 sequence (P02768 whole entry): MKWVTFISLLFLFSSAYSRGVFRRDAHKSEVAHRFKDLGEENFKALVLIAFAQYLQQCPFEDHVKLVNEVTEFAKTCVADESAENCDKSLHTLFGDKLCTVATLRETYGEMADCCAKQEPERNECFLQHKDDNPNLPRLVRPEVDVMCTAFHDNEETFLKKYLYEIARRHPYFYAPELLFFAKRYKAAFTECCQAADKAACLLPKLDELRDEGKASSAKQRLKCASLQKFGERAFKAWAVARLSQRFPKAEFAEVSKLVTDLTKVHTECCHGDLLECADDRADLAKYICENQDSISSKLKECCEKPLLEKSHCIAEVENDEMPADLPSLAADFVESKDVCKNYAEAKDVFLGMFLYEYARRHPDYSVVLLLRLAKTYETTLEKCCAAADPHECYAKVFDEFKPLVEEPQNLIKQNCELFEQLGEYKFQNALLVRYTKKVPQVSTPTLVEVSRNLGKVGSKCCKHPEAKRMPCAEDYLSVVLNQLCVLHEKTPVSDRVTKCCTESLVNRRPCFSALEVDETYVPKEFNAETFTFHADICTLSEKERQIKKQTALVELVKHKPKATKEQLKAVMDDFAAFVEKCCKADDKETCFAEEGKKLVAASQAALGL

[5] = tested on: K562; test: Cytotoxicity against human K562 cells after 48 hrs by SRB assay; format: functional; conditions: K562, 48 h
[6] = tested on: CCRF-CEM; test: Cytotoxicity against human CCRF-CEM cells assessed as cell growth at 10^-5 M after 48 hrs by SRB assay; format: functional; conditions: read-out: Activity
[7] = tested on: SK-MEL-2; test: Cytotoxicity against human SK-MEL-2 cells assessed as cell growth at 10^-5 M after 48 hrs by SRB assay; format: functional; conditions: SK-MEL-2, 48 h, read-out: Activity
[8] = Antiproliferative activity against human OVCAR4 cells at 10'5 M; format: functional, OVCAR-4
[9] = Cytotoxicity against human HOP92 cells assessed as cell growth at 10^-5 M after 48 hrs by SRB assay; format: functional; conditions: HOP-92, 48 h, read-out: Activity
[10] = Cytotoxicity against human SKOV3 cells after 48 hrs by SRB assay; format: functional; conditions: SK-OV-3, 48 h
[11] = tested on: NCI-H322M; test: Cytotoxicity against human NCI-H322M cells assessed as cell growth at 10^-5 M after 48 hrs by SRB assay; format: functional; conditions: read-out: Activity
[12] = tested on: SN12C; test: Cytotoxicity against human SN12C cells assessed as cell growth at 10^-5 M after 48 hrs by SRB assay; format: functional; conditions: read-out: Activity
[13] = tested on: M14; test: Cytotoxicity against human M14 cells assessed as cell growth at 10^-5 M after 48 hrs by SRB assay; format: functional; conditions: M14, 48 h, read-out: Activity
[14] = Cytotoxicity against human Hs 578T cells after 48 hrs by SRB assay; format: functional
[15] = Cytotoxicity against human HOP92 cells after 48 hrs by SRB assay; format: functional; conditions: HOP-92, 48 h
[16] = target: T1, Albumin; test: Binding affinity to human serum albumin at 0.25 to 2 uM at 308 K by fluorescence microscopic analysis; format: ADME; conditions: isolated protein
[17] = tested on: SK-MEL-5; test: Cytotoxicity against human SK-MEL-5 cells after 48 hrs by SRB assay; format: functional; conditions: SK-MEL-5, 48 h
[18] = tested on: NCI-H23; test: Cytotoxicity against human NCI-H23 cells after 48 hrs by SRB assay; format: functional; conditions: NCI-H23, 48 h
[19] = tested on: Malme-3M; test: Cytotoxicity against human MALME-3M cells assessed as cell growth at 10^-5 M after 48 hrs by SRB assay; format: functional; conditions: read-out: Activity
[20] = target: T1, Albumin; test: Binding affinity to human serum albumin at 0.25 uM at 303 K by fluorescence microscopic analysis in the presence of Cu2+; format: ADME; conditions: isolated protein
[21] = Cytotoxicity against human SF539 cells after 48 hrs by SRB assay; format: functional; conditions: SF-539, 48 h
[22] = Cytotoxicity against human RXF393 cells assessed as cell growth at 10^-5 M after 48 hrs by SRB assay; format: functional; conditions: RXF 393, 48 h, read-out: Activity
[23] = tested on: MDA-MB-435; test: Cytotoxicity against human MDA-MB-435 cells after 48 hrs by SRB assay; format: functional; conditions: MDA-MB-435, 48 h
[24] = Cytotoxicity against human IGROV1 cells assessed as cell growth at 10^-5 M after 48 hrs by SRB assay; format: functional; conditions: IGROV-1, 48 h, read-out: Activity
[25] = Cytotoxicity against human DU145 cells after 48 hrs by SRB assay; format: functional; conditions: DU-145, 48 h
[26] = Cytotoxicity against human SF539 cells assessed as cell growth at 10^-5 M after 48 hrs by SRB assay; format: functional; conditions: SF-539, 48 h, read-out: Activity
[27] = Cytotoxicity against human HCT15 cells assessed as cell growth at 10^-5 M after 48 hrs by SRB assay; format: functional; conditions: HCT-15, 48 h, read-out: Activity
[28] = Cytotoxicity against human SF268 cells assessed as cell growth at 10^-5 M after 48 hrs by SRB assay; format: functional; conditions: SF-268, 48 h, read-out: Activity
[29] = Cytotoxicity against human DU145 cells assessed as cell growth at 10^-5 M after 48 hrs by SRB assay; format: functional; conditions: DU-145, 48 h, read-out: Activity
[30] = read-out: LC50 (the source's name)

Question: For `O=C(/C=C/c1ccccc1)n1c(-c2ccc(Cl)cc2)nc2ccccc21`, which growth at 10 µM [1] is on record?
Answer: -48.1%

Question: And the growth at 10 µM [2]?
Answer: -50.5%

Question: What about the GI50 [3] of the same compound?
Answer: 1.74 µM

Question: And the TGI [3]?
Answer: 4.21 µM

Question: And the CC50 [3, 30]?
Answer: 10.5 µM

Question: What about the KSV [4] of the same compound?
Answer: 1.37 ×10⁵ L/mol

Question: What about the GI50 [5] of the same compound?
Answer: 2.09 µM

Question: What about the TGI [5] of the same compound?
Answer: 11.8 µM

Question: What about the CC50 [5, 30] of the same compound?
Answer: > 100 µM

Question: What about the growth at 10 µM [6] of the same compound?
Answer: -23.9%

Question: What about the growth at 10 µM [7] of the same compound?
Answer: -36%

Question: And the “growth inhibition (GI)” value [8]?
Answer: 69.96%

Question: What about the growth at 10 µM [9] of the same compound?
Answer: -39.4%

Question: And the GI50 [10]?
Answer: 1.49 µM

Question: And the TGI [10]?
Answer: 61.3 µM

Question: What about the CC50 [10, 30] of the same compound?
Answer: > 100 µM

Question: And the growth at 10 µM [11]?
Answer: 45%

Question: And the growth at 10 µM [12]?
Answer: -48.5%

Question: What about the growth at 10 µM [13] of the same compound?
Answer: -37.3%

Question: What about the GI50 [14] of the same compound?
Answer: 2.57 µM

Question: What about the TGI [14] of the same compound?
Answer: 17.9 µM

Question: What about the CC50 [14, 30] of the same compound?
Answer: > 100 µM

Question: What about the GI50 [15] of the same compound?
Answer: 2.72 µM

Question: What about the TGI [15] of the same compound?
Answer: 5.17 µM

Question: What about the CC50 [15, 30] of the same compound?
Answer: 9.81 µM

Question: What about the K [16] of the same compound?
Answer: 6.27 ×10³ /mol

Question: What about the GI50 [17] of the same compound?
Answer: 1.49 µM

Question: What about the TGI [17] of the same compound?
Answer: 3.22 µM

Question: And the CC50 [17, 30]?
Answer: 6.92 µM

Question: And the GI50 [18]?
Answer: 2.17 µM

Question: What about the TGI [18] of the same compound?
Answer: 6 µM

Question: What about the CC50 [18, 30] of the same compound?
Answer: > 100 µM

Question: And the growth at 10 µM [19]?
Answer: 15.9%

Question: What about the K [20] of the same compound?
Answer: 2.44 ×10³ /mol

Question: What about the GI50 [21] of the same compound?
Answer: 2.5 µM

Question: And the TGI [21]?
Answer: 6.46 µM

Question: And the CC50 [21, 30]?
Answer: 26.1 µM

Question: And the growth at 10 µM [22]?
Answer: -65.2%

Question: What about the GI50 [23] of the same compound?
Answer: 1.9 µM

Question: What about the TGI [23] of the same compound?
Answer: 5.05 µM

Question: What about the CC50 [23, 30] of the same compound?
Answer: 19.6 µM

Question: What about the growth at 10 µM [24] of the same compound?
Answer: 10.4%

Question: And the GI50 [25]?
Answer: 1.8 µM

Question: And the TGI [25]?
Answer: 4.93 µM

Question: And the CC50 [25, 30]?
Answer: 17 µM

Question: And the growth at 10 µM [26]?
Answer: -48.4%

Question: What about the growth at 10 µM [27] of the same compound?
Answer: -24.8%

Question: What about the growth at 10 µM [28] of the same compound?
Answer: -11.8%

Question: And the growth at 10 µM [29]?
Answer: 11.1%
